This is an account of results in PubChem BioAssay AID328 (DTP/NCI, 2004).

Molecules are shown by their SMILES. Several values for one entry are separate records, joined by “and”; a condition that tells them apart may be missing. Equal entries are not always repeated. Toxic doses and inconclusive results are not listed.

The test has as its system BDF1 mice, P388 leukemia ip, median survival T/C. The experiment in a line: NCI In Vivo Anticancer Drug Screen. Data for tumor model P388 Leukemia (intraperitoneal) in B6D2F1 (BDF1) mice. Conditions: endpoint: median survival time, higher = longer survival. The procedure, abridged: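 Each value expresses how treatment altered survival: treated-mouse outcome over vehicle-mouse outcome, both groups bearing the transplanted tumour.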

The mark [1] stands for this setting: dose: 75.0 mg/kg/injection, schedule: Q01DX009 (ip), vehicle: saline with Tween-80.
Setting [2] is: dose: 50.0 mg/kg/injection, schedule: Q01DX009 (ip), vehicle: saline.
[3] abbreviates: dose: 150.0 mg/kg/injection, schedule: Q01DX009 (ip), vehicle: saline.
The mark [4] stands for this setting: dose: 25.0 mg/kg/injection, schedule: Q04DX003 (ip), vehicle: saline with Tween-80.
Setting [5] is: dose: 25.0 mg/kg/injection, schedule: Q01DX009 (ip), vehicle: saline with Tween-80.
The mark [6] stands for this setting: dose: 50.0 mg/kg/injection, schedule: Q01DX009 (ip), vehicle: saline with Tween-80.
Setting [7] is: dose: 100.0 mg/kg/injection, schedule: Q01DX009 (ip), vehicle: saline with Tween-80.
Setting [8] is: dose: 200.0 mg/kg/injection, schedule: Q01DX009 (ip), vehicle: saline with Tween-80.
The mark [9] stands for this setting: dose: 12.5 mg/kg/injection, schedule: Q01DX009 (ip), vehicle: Klucel (hydroxypropylcellulose) (HPC).
[10] abbreviates: dose: 25.0 mg/kg/injection, schedule: Q01DX009 (ip), vehicle: Klucel (hydroxypropylcellulose) (HPC).
The mark [11] stands for this setting: dose: 50.0 mg/kg/injection, schedule: Q01DX009 (ip), vehicle: Klucel (hydroxypropylcellulose) (HPC).
Setting [12] is: dose: 100.0 mg/kg/injection, schedule: Q04DX003 (ip), vehicle: Klucel (hydroxypropylcellulose) (HPC).
The mark [13] stands for this setting: dose: 400.0 mg/kg/injection, schedule: Q01DX009 (ip), vehicle: saline with Tween-80.

As for `CC(C)(C(Cl)Cl)S(=O)(=O)O` (tested in a mixture with another compound), the T/C is, setting by setting: under setting [1], 100 % of control; (dose: 75.0 mg/kg/injection, schedule: Q04DX003 (ip), vehicle: saline with Tween-80) 110 % of control; (dose: 150.0 mg/kg/injection, schedule: Q01DX009 (ip), vehicle: saline with Tween-80) 100 % of control; (dose: 150.0 mg/kg/injection, schedule: Q04DX003 (ip), vehicle: saline with Tween-80) 100 % of control; (dose: 300.0 mg/kg/injection, schedule: Q01DX009 (ip), vehicle: saline with Tween-80) 109 % of control; (dose: 300.0 mg/kg/injection, schedule: Q04DX003 (ip), vehicle: saline with Tween-80) 110 % of control.

`CCN(CC)CCN1C(=O)c2cccc3cccc(c23)C1=O`: the T/C by setting is: under setting [2], 105 % of control; (dose: 66.0 mg/kg/injection, schedule: Q01DX009 (ip), vehicle: saline) 109 % of control; (dose: 100.0 mg/kg/injection, schedule: Q04DX003 (ip), vehicle: saline) 110 % of control; under setting [3], 172 % of control and 181 % of control; (dose: 200.0 mg/kg/injection, schedule: Q04DX003 (ip), vehicle: saline) 95 % of control.

Regarding `CCN1CC[N+](C)(CC)Cc2ccccc21` (stereo unspecified), the T/C (dose: 12.5 mg/kg/injection, schedule: Q04DX003 (ip), vehicle: saline with Tween-80) was 90 % of control and the T/C under setting [4] is 93 % of control.

Take `CC(C)CC(=O)CC1(C)CCC(c2ccoc2)O1` (stereo unspecified): the T/C runs as follows: under setting [5], 96 % of control and 100 % of control; under setting [6], 97 % of control and 105 % of control; under setting [7], 103 % of control and 110 % of control; under setting [8], 117 % of control.

For the compound `CC1C[N-]1.CC1C[N-]1.[Cl][Pt+2][Cl]` (stereo unspecified), the T/C is 100 % of control (dose: 25.0 mg/kg/injection, schedule: Q01DX009 (ip), vehicle: saline); 111 % of control under setting [2]; 101 % of control (dose: 100.0 mg/kg/injection, schedule: Q01DX009 (ip), vehicle: saline); 100 % of control under setting [3].

As to `CC(C)=CCC/C(C)=C\C=N\NS(=O)(=O)c1ccc([N+](=O)[O-])cc1`, the T/C was 99 % of control (dose: 6.25 mg/kg/injection, schedule: Q01DX009 (ip), vehicle: saline with Tween-80); 103 % of control (dose: 12.5 mg/kg/injection, schedule: Q01DX009 (ip), vehicle: saline with Tween-80); 103 % of control under setting [5].

Consider `COc1cc2ccc(CC3NCCc4cc5c(cc43)OCO5)cc2cc1OC` (stereo unspecified), for which the T/C is 105 % of control (dose: 22.0 mg/kg/injection, schedule: Q01DX009 (ip), vehicle: saline with Tween-80); 110 % of control (dose: 33.0 mg/kg/injection, schedule: Q01DX009 (ip), vehicle: saline with Tween-80); 100 % of control (dose: 50.0 mg/kg/injection, schedule: Q01DX009 (ip), vehicle: other); 115 % of control under setting [6]; 110 % of control under setting [1]; 100 % of control (dose: 100.0 mg/kg/injection, schedule: Q01DX009 (ip), vehicle: other). Moreover, the T/C is 118 % of control (dose: 100.0 mg/kg/injection, schedule: Q04DX003 (ip), vehicle: other) and 118 % of control (dose: 200.0 mg/kg/injection, schedule: Q04DX003 (ip), vehicle: other).

Regarding `O=[N+]([O-])c1cc([N+](=O)[O-])c(Nn2c3ccccc3c3ccccc32)c([N+](=O)[O-])c1`, the T/C is 100 % of control (dose: 6.25 mg/kg/injection, schedule: Q01DX009 (ip), vehicle: Klucel (hydroxypropylcellulose) (HPC)); 90 % of control and 100 % of control under setting [9]; 100 % of control and 110 % of control under setting [10]; 120 % of control under setting [11]; 100 % of control (dose: 100.0 mg/kg/injection, schedule: Q01DX009 (ip), vehicle: Klucel (hydroxypropylcellulose) (HPC)); 100 % of control under setting [12]. For the same compound, the T/C was 95 % of control (dose: 200.0 mg/kg/injection, schedule: Q01DX009 (ip), vehicle: Klucel (hydroxypropylcellulose) (HPC)) and 113 % of control (dose: 200.0 mg/kg/injection, schedule: Q04DX003 (ip), vehicle: Klucel (hydroxypropylcellulose) (HPC)).

On to `Cc1ccc(Oc2ccc3cc[n+](C)cc3c2)cc1`, for which the T/C by setting is: (dose: 2.75 mg/kg/injection, schedule: Q01DX009 (ip), vehicle: saline) 94 % of control; (dose: 4.12 mg/kg/injection, schedule: Q01DX009 (ip), vehicle: saline) 105 % of control; (dose: 9.5 mg/kg/injection, schedule: Q01DX009 (ip), vehicle: saline) 99 % of control; (dose: 12.5 mg/kg/injection, schedule: Q01DX009 (ip), vehicle: saline) 118 % of control.

With `ClCC#Cc1ccccc1`, the T/C is, setting by setting: under setting [9], 109 % of control; under setting [10], 86 % of control; under setting [11], 100 % of control.

Regarding `CCN(Cc1ccc(Cl)c(Cl)c1)c1ccc2nc(N)nc(N)c2c1C`, the T/C runs as follows: (dose: 1.56 mg/kg/injection, schedule: Q01DX009 (ip), vehicle: water) 105 % of control; (dose: 6.25 mg/kg/injection, schedule: Q01DX009 (ip), vehicle: water) 151 % of control; (dose: 12.5 mg/kg/injection, schedule: Q01DX009 (ip), vehicle: water) 98 % of control; (dose: 12.5 mg/kg/injection, schedule: Q04DX003 (ip), vehicle: Klucel (hydroxypropylcellulose) (HPC)) 107 % of control; (dose: 12.5 mg/kg/injection, schedule: Q04DX003 (ip), vehicle: water) 103 % of control and 118 % of control; (dose: 25.0 mg/kg/injection, schedule: Q01DX009 (ip), vehicle: water) 89 % of control. For the same compound, the T/C (dose: 25.0 mg/kg/injection, schedule: Q04DX003 (ip), vehicle: Klucel (hydroxypropylcellulose) (HPC)) is 109 % of control; the T/C (dose: 50.0 mg/kg/injection, schedule: Q04DX003 (ip), vehicle: Klucel (hydroxypropylcellulose) (HPC)) is 115 % of control; the T/C (dose: 50.0 mg/kg/injection, schedule: Q04DX003 (ip), vehicle: water) was 159 % of control and 189 % of control; the T/C under setting [12] is 88 % of control; the T/C (dose: 100.0 mg/kg/injection, schedule: Q04DX003 (ip), vehicle: water) was 109 % of control.

On to `CC(=O)NCc1ccc([N+](=O)[O-])cc1`, for which the T/C is 103 % of control under setting [5]; 111 % of control under setting [4]; 103 % of control under setting [6]; 115 % of control (dose: 50.0 mg/kg/injection, schedule: Q04DX003 (ip), vehicle: saline with Tween-80); 100 % of control under setting [7]; 111 % of control (dose: 100.0 mg/kg/injection, schedule: Q04DX003 (ip), vehicle: saline with Tween-80). Further, the T/C under setting [8] is 119 % of control; the T/C (dose: 200.0 mg/kg/injection, schedule: Q04DX003 (ip), vehicle: saline with Tween-80) is 109 % of control; the T/C under setting [13] is 95 % of control; the T/C (dose: 400.0 mg/kg/injection, schedule: Q04DX003 (ip), vehicle: saline with Tween-80) was 118 % of control.

Turning to `C[C@]12CC[C@H](OC(=O)Cc3ccc(N(CCCl)CCCl)cc3)CC1=CC[C@@H]1[C@@H]2CC[C@]2(C)C(=O)CC[C@@H]12`, the T/C runs as follows: (dose: 115.0 mg/kg/injection, schedule: Q04DX003 (ip), vehicle: saline with Tween-80) 113 % of control; under setting [8], 215 % of control; (dose: 400.0 mg/kg/injection, schedule: Q04DX003 (ip), vehicle: alcohol) 159 % of control; (dose: 600.0 mg/kg/injection, schedule: Q04DX003 (ip), vehicle: alcohol) 272 % of control.

As for `Nc1cccs1`, the T/C reads like this: (dose: 9.38 mg/kg/injection, schedule: Q01DX009 (ip), vehicle: other) 104 % of control; (dose: 18.75 mg/kg/injection, schedule: Q01DX009 (ip), vehicle: other) 100 % of control; (dose: 37.5 mg/kg/injection, schedule: Q01DX009 (ip), vehicle: other) 100 % of control; under setting [6], 98 % of control; (dose: 75.0 mg/kg/injection, schedule: Q01DX009 (ip), vehicle: other) 98 % of control; under setting [7], 116 % of control. Further, the T/C by setting is: (dose: 150.0 mg/kg/injection, schedule: Q01DX009 (ip), vehicle: other) 101 % of control; under setting [8], 114 % of control; under setting [13], 87 % of control.
